From ChEMBL document CHEMBL5143521, “Identification of a selective BRD4 PROTAC with potent antiproliferative effects in AR-positive prostate cancer based on a dual BET/PLK1 inhibitor” (Eur J Med Chem, 2022)
Calls of active or inactive are those of the source. The rule behind the calls is not given here.

Assays:
VCaP = assay: Downregulation of c-Myc […] expression level in AR-positive human VCaP cells at 1 nM by Western blot analysis; assay type: functional, cell-based; settings: time 2-48 hrs, TDE = time-dependent effect
PC-3 = assay: Antiproliferative activity against AR-negative human castration resistant PC-3 cells assessed as reduction in cell viability measured after 4 days by MTT assay; assay type: functional, cell-based; settings: PC-3, 96 h
LNCaP = assay: Antiproliferative activity against AR-positive harmone sensitive human LNCaP cells assessed as reduction in cell viability at 100 to 300 nM incubated for 3 days followed by compound washout and measured after 8 days; assay type: functional; settings: dose 100-300 nM, time 3 day
[1] = molecular target: T1, Protein cereblon/Bromodomain-containing protein 4 (Homo sapiens) (UniProt O60885+Q96SW2); assay: Protac activity at BRD4/CRBN in AR-positive human 22Rv1 cells assessed as degradation of BRD4 by measuring downregulation of BRD4 expression level measured after 24 hrs by Western blot analysis; assay type: cell-based; settings: dose 1-10000 nM, DDE = dose-dependent effect
CWR22R [2] = assay: Induction of apoptosis in AR-positive human 22Rv1 cells assessed as increase in early apoptotic cells measured after 72 hrs by Annexin V-FITC/PI staining based flow cytometry method; assay type: functional, cell-based; settings: dose 100-1000 nM, DDE = dose-dependent effect
[3] = molecular target: Serine/threonine-protein kinase PLK1 (Homo sapiens, UniProt P53350); assay: Inhibition of recombinant full length human PLK1 using casein as substrate incubated for 40 mins in presence of [gamma-33P]-ATP by radiometric scintillation counting method
CWR22R [4] = assay: Induction of cell cycle arrest in AR-positive human 22Rv1 cells assessed as accumulation of cells at G0/G1 phase at 100 to 1000 nM measured after 72 hrs by flow cytometry analysis; assay type: functional, cell-based; settings: dose 100-1000 nM
[5] = molecular target: T1, Protein cereblon/Bromodomain-containing protein 4 (Homo sapiens); assay: Protac activity at BRD4/CRBN in AR-negative human castration resistant DU-145 cells assessed as degradation of BRD4 by measuring downregulation of BRD4 expression level measured after 24 hrs by Western blot analysis; assay type: cell-based; settings: dose 1-10000 nM, DDE = dose-dependent effect
[6] = molecular target: Bromodomain-containing protein 4 (Homo sapiens, UniProt O60885); assay: Inhibition of BRD4 (unknown origin) by alpha-screen assay
CWR22R [7] = assay: Downregulation of c-Myc […] expression level in AR-positive human 22Rv1 cells at 1 nM by Western blot analysis; assay type: functional, cell-based; settings: time 2-48 hrs, TDE = time-dependent effect
CWR22R [8] = assay: Induction of apoptosis in AR-positive human 22Rv1 cells assessed as upregulation of cleaved PARP level measured after 72 hrs by Annexin V-FITC/PI staining based flow cytometry method; assay type: functional, cell-based; settings: dose 100-1000 nM, DDE = dose-dependent effect
CWR22R [9] = assay: Induction of apoptosis in AR-positive human 22Rv1 cells assessed as upregulation of cleaved caspase-3 level measured after 72 hrs by Annexin V-FITC/PI staining based flow cytometry method; assay type: functional, cell-based; settings: dose 100-1000 nM, DDE = dose-dependent effect

T1 sequence (Q96SW2 whole entry, looked up, other chains not shown): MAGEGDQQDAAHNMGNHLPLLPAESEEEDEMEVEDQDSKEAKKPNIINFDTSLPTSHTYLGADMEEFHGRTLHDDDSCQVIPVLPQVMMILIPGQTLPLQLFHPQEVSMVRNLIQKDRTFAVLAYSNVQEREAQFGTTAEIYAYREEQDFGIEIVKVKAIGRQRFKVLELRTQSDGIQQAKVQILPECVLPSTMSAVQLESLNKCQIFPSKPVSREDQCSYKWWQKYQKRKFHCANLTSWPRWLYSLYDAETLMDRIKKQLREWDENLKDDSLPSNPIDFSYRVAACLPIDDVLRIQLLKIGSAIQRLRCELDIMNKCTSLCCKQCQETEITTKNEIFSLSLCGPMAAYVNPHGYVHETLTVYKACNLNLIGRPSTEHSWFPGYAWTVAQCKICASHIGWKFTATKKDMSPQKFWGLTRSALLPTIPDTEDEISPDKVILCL
Sequence of Serine/threonine-protein kinase PLK1 (P53350 whole entry): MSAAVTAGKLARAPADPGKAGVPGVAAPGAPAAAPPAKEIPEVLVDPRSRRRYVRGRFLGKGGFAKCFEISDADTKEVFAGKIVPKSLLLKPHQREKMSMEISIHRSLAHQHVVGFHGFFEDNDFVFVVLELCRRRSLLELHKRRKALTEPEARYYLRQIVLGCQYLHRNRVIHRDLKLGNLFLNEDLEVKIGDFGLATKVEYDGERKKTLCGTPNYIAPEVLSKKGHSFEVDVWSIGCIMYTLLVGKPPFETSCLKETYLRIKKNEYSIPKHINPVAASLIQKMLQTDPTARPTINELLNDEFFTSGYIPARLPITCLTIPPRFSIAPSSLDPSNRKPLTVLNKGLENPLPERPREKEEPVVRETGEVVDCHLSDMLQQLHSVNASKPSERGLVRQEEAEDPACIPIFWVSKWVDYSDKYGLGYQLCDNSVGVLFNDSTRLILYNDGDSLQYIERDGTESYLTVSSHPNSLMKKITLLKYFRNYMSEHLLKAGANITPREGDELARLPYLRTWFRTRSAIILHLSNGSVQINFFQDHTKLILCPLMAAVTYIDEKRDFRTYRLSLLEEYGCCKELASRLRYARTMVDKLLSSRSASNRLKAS

## CC[C@@H]1c2nnc(C)n2-c2cnc(Nc3ccc(C(=O)NC4CCN(C(=O)COc5cccc6c5C(=O)N(C5CCC(=O)NC5=O)C6=O)CC4)cc3OC)nc2N1CC1CCCCC1 (some centres not stated)
VCaP
  Activity: Tde
PC-3
  IC50: 2440 nM
LNCaP
  inhibition (INH): 100%
[1]
  Activity: Dde
CWR22R [2]
  Activity: Dde
[3]
  IC50: 985 nM
CWR22R [4]
  Activity: Active
[5]
  Activity: Dde
[6]
  IC50: 254 nM
CWR22R [7]
  Activity: Tde
CWR22R [8]
  Activity: Dde
CWR22R [9]
  Activity: Dde
